Results published in patent publication US11691962B2 (eXIthera Pharmaceuticals, Inc., priority 2018, dated 2023).

Legend:
Thrombin = Thrombin (Homo sapiens (Human), UniProt P00734); assay: Dose response assay for protease inhibitors: thrombin; type: biochemical; conditions: selectivity, thrombin over Factor XIa
Method in brief: (§1)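 Glp-Pro-Arg-AMC substrate (thrombin, trypsin) or Pro-Phe-Arg-AMC/Boc-Leu-Gly-Arg-AMC (Factor Xa), diluted to 100 μM, in 20 mM Hepes pH 7.4, 150 mM NaCl, 0.02% Tween 20; enzyme diluted to 0.5 nM before addition. Two-fold serial compound dilutions; kinetic reads at 30° C. Data yield IC50 and Kon.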

Trypsin = assay: Dose response assay for protease inhibitors: trypsin; type: biochemical; conditions: selectivity, trypsin over Factor XIa
Method in brief: as §1

Factor Xa = Factor Xa (Homo sapiens (Human), UniProt P00742); assay: Dose response assay for protease inhibitors: Factor Xa; type: biochemical; conditions: selectivity, Factor Xa over Factor XIa
Sequence of Factor Xa (P00742 235-488): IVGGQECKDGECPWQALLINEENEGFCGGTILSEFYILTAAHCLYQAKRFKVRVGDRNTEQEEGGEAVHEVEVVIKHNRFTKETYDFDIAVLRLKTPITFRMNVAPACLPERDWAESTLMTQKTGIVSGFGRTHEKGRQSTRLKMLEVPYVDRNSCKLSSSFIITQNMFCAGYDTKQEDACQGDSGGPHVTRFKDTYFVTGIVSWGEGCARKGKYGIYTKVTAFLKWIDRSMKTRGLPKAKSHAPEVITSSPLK
Sequence of Factor Xa (P00742 41-179 partner): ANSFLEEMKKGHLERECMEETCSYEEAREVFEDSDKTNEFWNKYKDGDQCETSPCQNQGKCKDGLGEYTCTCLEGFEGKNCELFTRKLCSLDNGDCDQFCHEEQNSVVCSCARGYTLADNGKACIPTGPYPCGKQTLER
Method in brief: as §1

[1] = Metabolic stability in dog hepatocytes; type: in vitro ADME; conditions: pooled cryopreserved hepatocytes; beagle dog hepatocytes, 2 μM compound; read-out: Dog Hepatocyte Stability (t1/2)
Method: The following procedure was used to determine the stability of test compounds in beagle dog hepatocytes in a 96-well plate format. The test compounds, including the controls, imipramine and 7-ethoxycoumarin, were dissolved at 10 mM in DMSO, followed by further 5-fold dilution with DMSO to 2 mM. Pooled cryopreserved beagle dog hepatocytes were thawed and transferred into complete medium. Cells were gently centrifuged (700 rpm for 5 min) and the pellet rinsed with KHB (Krebs Henseleit buffer). Cells were resuspended, counted using Trypan blue, and adjusted to 1 million cells/mL in KHB buffer. The 2 mM compound stock solutions were diluted 10-fold with acetonitrile, followed by a further 50-fold dilution with KHB buffer. 200 μL of these compound solutions were transferred to 96-well polypropylene assay plates and an equal volume of the hepatocyte solution was added and mixed to initiate the reaction (final assay concentrations were 2 μM compound and 500,000 cells/mL). Assay plates were incubated at 37° C. in 5% CO2 with gentle agitation. 50 μL aliquots were removed at multiple time points out to 180 minutes and quenched with 6 volumes of cold acetonitrile (containing 250 ng/mL of carbutamide and chrysin as internal standards) to terminate the reaction and precipitate protein. Quenched samples were maintained on ice. The quenched samples were centrifuged at 2000×g (3100 rpm) for 10 minutes at 4° C. 50 μL aliquots of the supernatants were removed and diluted with 100 μL Milli-Q water to reduce the % organic content prior to bioanalysis by LC-MS/MS. Peak areas corresponding to the test compound were recorded. The compound remaining was calculated by comparing the peak area at each time point to time zero. Data were analyzed and results were calculated using Microsoft Excel 2010.

[2] = Aqueous solubility in PBS by HPLC-UV/VIS; type: physicochemical; conditions: PBS pH 7.4, 2% DMSO, 24 h at room temperature; for solubility at 24 h: phosphate buffered saline, aqueous buffer, kinetic from dmso stock
Method: The following procedure was used to determine the aqueous solubility of a test compound in phosphate buffered saline (PBS-NaCl 137 mM, KCl 2.7 mM, Na2HPO4 8.1 mM, KH2PO4 1.5 mM, pH 7.4) in 96-well plate format by HPLC-UV/VIS analysis. The test compound was prepared at 200 μM in PBS from a 10 mM DMSO stock solution. The final DMSO concentration was 2%. The PBS buffer samples were mixed thoroughly followed by incubation at room temperature for 24 h. At the end of the incubation, the PBS buffer samples were centrifuged and supernatants analyzed by HPLC. The aqueous solubility (μM) of the test compound in PBS was determined by comparing the peak area of the principal peak in the calibration standard (200 μM) with the peak area of the corresponding peak in each of the PBS samples. The range of the assay was approximately 0.5 μM to 200 μM. The reference compounds used in each assay were metoprolol, rifampicin, ketoconazole, phenytoin, haloperidol, simvastatin, diethylstilbestrol, and tamoxifen ranking from fully soluble (200 μM) to poorly soluble (<1 μM).

| Molecule | Ratio: Thrombin/FXIa (Thrombin) | Ratio: FXa/FXIa (Factor Xa) | half-life at 2 μM [1] [h] | solubility at 24 h [2] [µM] | Aqueous Solubility (uM, in PBS) [2] | Ratio: Trypsin/FXIa (Trypsin) |
| --- | --- | --- | --- | --- | --- | --- |
| CC[C@@H](NC(=O)N1C(=O)[C@H](Cc2ccnc(N)c2)[C@H]1C(=O)N(C)c1cccs1)c1ccccc1 [Compound 1-10, (2S,3R)-3-((2-aminopyridin-4-yl)methyl)-N2-(thiophen-2-yl)-N1-((R)-1-phenylpropyl)-N2-methyl-4-oxoazetidine-1,2-dicarboxamide] | H (“H” indicates 101-1000) | H (“H” indicates 101-1000) | < 1 | > 100 | – | G (“G” indicates 1-100) |
| CC[C@@H](NC(=O)N1C(=O)[C@H](Cc2ccnc(N)c2)[C@H]1C(=O)N(C)c1nccn1C)c1ccccc1 [Compound 1-13, (2S,3R)-3-((2-aminopyridin-4-yl)methyl)-N2-(1-methyl-1H-imidazol-2-yl)-N1-((R)-1-phenylpropyl)-N2-methyl-4-oxoazetidine-1,2-dicarboxamide] | I (“I” indicates > 500) | I (“I” indicates > 500) | 2.02 to 4 | > 100 | – | G (“G” indicates 1-100) |
| CC[C@@H](NC(=O)N1C(=O)[C@H](Cc2cc(C)nc(N)c2)[C@H]1C(=O)N(C)c1cnn(C)c1)c1cccc(Cl)c1 [Compound 1-15, (2S,3R)-3-((2-amino-6-methylpyridin-4-yl)methyl)-N2-(1-methyl-1H-pyrazol-4-yl)-N1-((R)-1-(3-chlorophenyl)propyl)-N2-methyl-4-oxoazetidine-1,2-dicarboxamide] | G (“G” indicates 1-100) | H (“H” indicates 101-1000) | > 4 | > 100 | – | G (“G” indicates 1-100) |
| CC[C@@H](NC(=O)N1C(=O)[C@H](Cc2ccnc(N)c2)[C@H]1C(=O)N(C)c1cscn1)c1cccc(Cl)c1 [Compound 1-17, (2S,3R)-3-((2-aminopyridin-4-yl)methyl)-N2-(4-thiazolyl)-N1-((R)-1-(3-chlorophenyl)propyl)-N2-methyl-4-oxoazetidine-1,2-dicarboxamide] | H (“H” indicates 101-1000) | H (“H” indicates 101-1000) | 1.02 to 2 | > 100 | – | G (“G” indicates 1-100) |
| CC[C@@H](NC(=O)N1C(=O)[C@H](Cc2ccnc(N)c2)[C@H]1C(=O)N(C)c1cnn(C)c1)c1ccc(C)nc1 [Compound 1-18, (2S,3R)-3-((2-aminopyridin-4-yl)methyl)-N2-(1-methyl-1H-pyrazol-4-yl)-N1-((R)-1-(6-methylpyridin-3-yl)propyl)-N2-methyl-4-oxoazetidine-1,2-dicarboxamide] | G (“G” indicates 1-100) | H (“H” indicates 101-1000) | 2.02 to 4 | > 100 | – | G (“G” indicates 1-100) |
| CC[C@@H](NC(=O)N1C(=O)[C@H](Cc2ccnc(NC)c2)[C@H]1C(=O)N(C)c1nccn1C)c1cccc(Cl)c1 [Compound 1-41, (2S,3R)-3-((2-methylaminopyridin-4-yl)methyl)-N2-(1-methyl-1H-imidazol-2-yl)-N1-((R)-1-(3-chlorophenyl)propyl)-N2-methyl-4-oxoazetidine-1,2-dicarboxamide] | H (“H” indicates 101-1000) | I (“I” indicates > 500) | 1.02 to 2 | > 100 | – | G (“G” indicates 1-100) |

More lines, main results first:

| Ratio: Thrombin/FXIa (Thrombin) | Ratio: FXa/FXIa (Factor Xa) | half-life at 2 μM [1] [h] | solubility at 24 h [2] [µM] | Aqueous Solubility (uM, in PBS) [2] | Molecule | Ratio: Trypsin/FXIa (Trypsin) |
| --- | --- | --- | --- | --- | --- | --- |
| H (“H” indicates 101-1000) | I (“I” indicates > 500) | > 4 | > 100 | – | CC[C@@H](NC(=O)N1C(=O)[C@H](Cc2ccnc(N)c2)[C@H]1C(=O)N(C)c1ccn(C)n1)c1ccccc1 [Compound 1-3, (2S,3R)-3-((2-aminopyridin-4-yl)methyl)-N2-(1-methyl-1H-pyrazol-3-yl)-N1-((R)-1-phenylpropyl)-N2-methyl-4-oxoazetidine-1,2-dicarboxamide] | G (“G” indicates 1-100) |
| I (“I” indicates > 500) | I (“I” indicates > 500) | 1.02 to 2 | > 100 | – | CC[C@@H](NC(=O)N1C(=O)[C@H](Cc2ccnc(N)c2)[C@H]1C(=O)N(C)c1ccnn1C)c1cccc(Cl)c1 [Compound 1-4, (2S,3R)-3-((2-aminopyridin-4-yl)methyl)-N2-(1-methyl-1H-pyrazol-5-yl)-N1-((R)-1-(3-chlorophenyl)propyl)-N2-methyl-4-oxoazetidine-1,2-dicarboxamide] | G (“G” indicates 1-100) |
| G (“G” indicates 1-100) | H (“H” indicates 101-1000) | > 4 | > 100 | – | CC[C@@H](NC(=O)N1C(=O)[C@H](Cc2ccnc(N)c2)[C@H]1C(=O)N(C)c1cscn1)c1ccccc1 [Compound 1-8, (2S,3R)-3-((2-aminopyridin-4-yl)methyl)-N2-(4-thiazolyl)-N1-((R)-1-phenylpropyl)-N2-methyl-4-oxoazetidine-1,2-dicarboxamide] | G (“G” indicates 1-100) |
| H (“H” indicates 101-1000) | H (“H” indicates 101-1000) | 2.02 to 4 | > 100 | – | CC[C@@H](NC(=O)N1C(=O)[C@H](Cc2cc(C)nc(N)c2)[C@H]1C(=O)N(C)c1ccn(C)n1)c1cccc(C)c1 [Compound 1-22, (2S,3R)-3-((2-amino-6-methylpyridin-4-yl)methyl)-N2-(1-methyl-1H-pyrazol-3-yl)-N1-((R)-1-(3-methylphenyl)propyl)-N2-methyl-4-oxoazetidine-1,2-dicarboxamide] | G (“G” indicates 1-100) |
| H (“H” indicates 101-1000) | I (“I” indicates > 500) | < 1 | > 100 | – | CN(C(=O)[C@@H]1[C@@H](Cc2ccnc(N)c2)C(=O)N1C(=O)N[C@@H](C1CCCCC1)C(F)(F)F)c1ccn(C)n1 [Compound 1-32, (2S,3R)-3-((2-aminopyridin-4-yl)methyl)-N2-(1-methyl-1H-pyrazol-3-yl)-N1-((S)-1-cyclohexyl-2,2,2-trifluoroethyl)-N2-methyl-4-oxoazetidine-1,2-dicarboxamide] | G (“G” indicates 1-100) |
| H (“H” indicates 101-1000) | H (“H” indicates 101-1000) | 1.02 to 2 | > 100 | – | CC[C@@H](NC(=O)N1C(=O)[C@H](Cc2ccnc(N)c2)[C@H]1C(=O)N(C)c1nccn1C)c1cccc(Cl)c1 [Compound 1-35, (2S,3R)-3-((2-aminopyridin-4-yl)methyl)-N2-(1-methyl-1H-imidazol-2-yl)-N1-((R)-1-(3-chlorophenyl)propyl)-N2-methyl-4-oxoazetidine-1,2-dicarboxamide] | G (“G” indicates 1-100) |
| H (“H” indicates 101-1000) | I (“I” indicates > 500) | – | – | W (“W” indicates > 100 μM) | (2S,3R)-3-((2-amino-6-methylpyridin-4-yl)methyl)-N2-(1-methyl-1H-imidazol-2-yl)-N1-((R)-1-(3-fluorophenyl)propyl)-N2-methyl-4-oxoazetidine-1,2-dicarboxamide [Compound 1-120] | G (“G” indicates 1-100) |
